Assay results as given in patent publication US8716438B2, “Matricryptic ECM peptides for tissue reconstruction” (University of Pittsburgh—Of the Commonwealth System of …, priority 2009, dated 2014).

What was measured:
[1] = system: human perivascular stem cells; experiment: Boyden chamber chemotaxis of human perivascular stem cells; assay type: cell-based; conditions: Neuro Probe 48-well chamber, 3 hours, varying concentrations
Protocol: To confirm the chemotactic activity for progenitor cells within ECM degradation products, human perivascular stem cells were assessed in vitro in a Boyden chamber. The peptides IAGVGGEKSGGF (Peptide 1, SEQ ID NO: 1) and GPVGPSGPPGK (Peptide 2, SEQ ID NO: 2) were tested.
Perivascular stem cells were isolated from human muscle and propagated in culture as previously described (Crisan M, Yap S, Casteilla L, et al. A perivascular origin for mesenchymal stem cells in multiple human organs. Cell Stem Cell. 2008; 3:301-313).
Perivascular stem cells were cultured in Dulbecco's Modified Eagle's Medium (DMEM) supplemented with 20% fetal calf serum (FCS), 2 mM glutamine, 100 U/ml penicillin, and 100 μg/ml streptomycin in […] at 37° C.
Cultures at passages 10-12 and 50-70% confluence were starved in serum-free DMEM supplemented with 0.5% heat inactivated (FCS) for 14-17 hours. After starvation, cells were harvested in 0.25% trypsin and 0.53 mM EDTA, centrifuged, and resuspended in DMEM with 0.5% heat inactivated FCS at a concentration of 6×10^5 cells/ml for 1 hour. […] After 3 hours, cells facing the upper chamber on the filter were scraped off, and cells facing the bottom filter were fixed in methanol, stained with 500 nM DAPI (Sigma, D9564), and counted using ImageJ (NIH).

[2] = system: human cortical neuroepithelium stem (CTX) cells; experiment: CTX cells chemotaxis assay; assay type: cell-based; conditions: 5 h
Protocol: (§1) Source of Cells and Culture Conditions: Human perivascular stem cells were obtained as described above and were cultured in high-glucose Dulbecco's modified Eagle's medium (DMEM, Invitrogen) containing 20% fetal bovine serum (FBS; Thermo), 100 U/mL penicillin, and 100 μg/mL streptomycin (Sigma) at 37° C. in 5% CO2. Human cortical neuroepithelium stem (CTX) cells were cultured in DMEM:F12 supplemented with 0.03% Human albumin solution, 100 μg/ml human Apo-Transferrin, 16.2 μg/ml Putrescine DiHCl, 5 μg/ml Insulin, 60 ng/ml Progesterone, 2 mM L-Glutamine, 40 ng/ml Sodium Selinite, 10 ng/ml human bFGF, 20 ng/ml human Epidermal growth factor, and 100 nM 4-Hydroxytestosterone.
CTX Cells Chemotaxis Assay: CTX cells (human cortical neuroepithelium stem cells) were grown to ˜80% confluence, made into a single cell suspension, and the migration of 3×10^4 cells per well towards peptide 1 was assayed over 5 h. Migrated cells were stained by 4′,6-diamidino-2-phenylindole and quantified with ImageJ (NIH). All of the data are means of quadruplicate determinations with standard deviations. The assay was performed on three separate occasions.

[3] = system: C57/BL6 mice, amputated third digit; experiment: Animal model of digit amputation (in vivo bone formation); parameters: species or system mouse
Protocol: Animal Model of Digit Amputation: Adult female 6- to 8-week-old C57/BL6 mice (n=4) were subjected to aseptic midsecond phalanx amputation of the third digit on both hind feet. At 0, 24, and 96 h after surgery 15 μL of 10 mM peptide 1 was injected into the footpad below the amputated digit using a 30-gauge needle. A second group of animals (n=4) were treated in the same way except that phosphate buffered saline (PBS) was injected instead of the peptide Animals were killed via cervical dislocation under isoflurane anesthesia at 14 days after surgery. Isolated toes were fixed in 10% neutral buffered formalin (NBF), embedded in paraffin and cut into 5 μm sections, before deparaffinization and staining with Alcian blue at pH 2.5, hematoxylin and eosin (H&E) or Masson's trichrome.

[4] = system: human perivascular stem cells; experiment: Human perivascular stem cells osteogenic differentiation; assay type: cell-based
Protocol: as §1
Human Perivascular Stem Cells Osteogenic Differentiation: Confluent perivascular stem cells were cultured in osteogenic differentiation medium (DMEM with 20% FBS, 20 μM ascorbic acid and 1.76 mM β-glycophosphate) and analyzed for the presence of calcium deposits after 4, 7, and 14 days. Calcium deposits were detected via fixation in 10% NBF and staining with 2% Alizarin Red.

Sequence | Chemotactic activity for progenitor cells [1] | Migration of CTX cells compared to media without peptide ([2]; all concentrations of peptide, 3×10^4 cells per well) | Peptide concentration at which CTX cell migration was highest ([2]; range of concentrations) | In vivo bone formation at the amputated digit ([3]; 15 μL of 10 mM peptide injected into footpad at 0, 24, 96 h, tissue at 14 days, H&E/trichrome, vs buffer) | Alcian blue staining of sulfated glycosaminoglycans (GAG) ([3]; 15 μL of 10 mM peptide into footpad, 14 days, buffer group showed diffuse GAG staining) | Bone nodules in standard culture medium ([4]; 100 μM peptide, not seen without peptide) | Bone nodules in osteogenic differentiation medium ([4]; 1, 10 or 100 μM peptide, vs differentiation medium alone)
GPVGPSGPPGK (listed as Sus scrofa) [Peptide 2, 11-mer from porcine Collagen type III alpha 1, found in pepsin-digested UBM, chemically synthesized] | excellent chemotactic activity |  |  |  |  |  | 
IAGVGGEKSGGF (listed as Sus scrofa) [Peptide 1, 12-mer from porcine Collagen type III alpha 1, found in pepsin-digested UBM, chemically synthesized] | excellent chemotactic activity | increased migration | 1 µM | formation of a bone like growth on the side of the amputated digit | concentrated GAG positive staining only at the bone nodule | caused the formation of bone nodules | more bone nodules
